Assay results reported in ChEMBL document CHEMBL3400121, “Design and synthesis of novel 1,2,3-triazole-pyrimidine-urea hybrids as potential anticancer agents” (Bioorg Med Chem Lett, 2015).

Legend:
Format in all cases: functional, cell-based
[1] = tested on: MCF7; test: Anticancer activity against human MCF7 cells assessed as inhibition of proliferation after 72 hrs by MTT assay; conditions: MCF7, 72 h
[2] = Anticancer activity against mouse B16F10 cells assessed as inhibition of proliferation after 72 hrs by MTT assay; conditions: B16-F10, 72 h
[3] = Anticancer activity against human EC109 cells assessed as inhibition of proliferation after 72 hrs by MTT assay; conditions: ECa-109, 72 h
[4] = tested on: MGC-803; test: Anticancer activity against human MGC803 cells assessed as inhibition of proliferation after 72 hrs by MTT assay; conditions: MGC-803, 72 h

Compound | IC50 [1] | IC50 [2] | IC50 [3] | IC50 [4]
COc1ccccc1Nc1nc(SCc2cn(CC(=O)NC(=O)Nc3ccccn3)nn2)nc(-c2ccc(C(C)C)cc2)c1C#N | 19.3 µM | 34.6 µM | 8.96 µM | > 64 µM
Cc1ccc(Nc2nc(SCc3cn(CC(=O)NC(=O)Nc4ccccn4)nn3)nc(-c3ccc(Cl)cc3)c2C#N)cc1 | 27 µM | 1.32 µM | 13.1 µM | 24 µM
CC(C)c1ccc(-c2nc(SCc3cn(CC(=O)NC(=O)Nc4ccccn4)nn3)nc(Nc3ccccc3O)c2C#N)cc1 | > 64 µM | 16.1 µM | 7.38 µM | 16.4 µM
CC(C)c1ccc(-c2nc(SCc3cn(CC(=O)NC(=O)Nc4ccccn4)nn3)nc(Nc3ccccc3Cl)c2C#N)cc1 | 43.7 µM | 6.79 µM | 23.4 µM | 19.7 µM
CC(C)c1ccc(-c2nc(SCc3cn(CC(=O)NC(=O)Nc4ccccn4)nn3)nc(Nc3ccc(F)cc3)c2C#N)cc1 | > 64 µM | 7.25 µM | > 64 µM | 17.5 µM
Cc1ccc(Nc2nc(SCc3cn(CC(=O)NC(=O)Nc4ccccn4)nn3)nc(-c3ccc(C)cc3)c2C#N)cc1 | 39.6 µM | 1.01 µM | > 64 µM | 9.89 µM
Cc1ccc(-c2nc(SCc3cn(CC(=O)NC(=O)Nc4ccccn4)nn3)nc(Nc3cccc(Cl)c3)c2C#N)cc1 | 14.9 µM | 7.58 µM | 25.6 µM | 7.89 µM
CC(C)c1ccc(-c2nc(SCc3cn(CC(=O)NC(=O)Nc4ccccn4)nn3)nc(Nc3ccc(Cl)cc3)c2C#N)cc1 | > 64 µM | 0.86 µM | 11.2 µM | > 64 µM
Cc1ccc(-c2nc(SCc3cn(CC(=O)NC(=O)Nc4ccccn4)nn3)nc(Nc3cccc(C(F)(F)F)c3)c2C#N)cc1 | 6.12 µM | 9.58 µM | 32.3 µM | 7.58 µM
CC(C)c1ccc(-c2nc(SCc3cn(CC(=O)NC(=O)Nc4ccccn4)nn3)nc(Nc3ccccc3F)c2C#N)cc1 | > 64 µM | 8.38 µM | 15.5 µM | > 64 µM
Cc1cccc(Nc2nc(SCc3cn(CC(=O)NC(=O)Nc4ccccn4)nn3)nc(-c3ccc(C(C)C)cc3)c2C#N)c1 | > 64 µM | 1.65 µM | 7.32 µM | 25.3 µM
O=c1[nH]cc(F)c(=O)[nH]1 [FLUOROURACIL] | 9.12 µM | 1.43 µM | 11.6 µM | 8.43 µM
CC(C)c1ccc(-c2nc(SCc3cn(CC(=O)NC(=O)Nc4ccccn4)nn3)nc(Nc3ccccc3)c2C#N)cc1 | > 64 µM | 14.3 µM | > 64 µM | 15.8 µM
Cc1ccc(Nc2nc(SCc3cn(CC(=O)NC(=O)Nc4ccccn4)nn3)nc(-c3ccc(Br)cc3)c2C#N)cc1 | 14.4 µM | 8.16 µM | 7.92 µM | 13.9 µM
CC(C)c1ccc(-c2nc(SCc3cn(CC(=O)NC(=O)Nc4ccccn4)nn3)nc(Nc3cccc([N+](=O)[O-])c3)c2C#N)cc1 | 25.9 µM | 26.4 µM | 31.3 µM | > 64 µM
Cc1ccccc1Nc1nc(SCc2cn(CC(=O)NC(=O)Nc3ccccn3)nn2)nc(-c2ccc(C(C)C)cc2)c1C#N | > 64 µM | 18.6 µM | 7.23 µM | 19 µM
CC(C)c1ccc(Nc2nc(SCc3cn(CC(=O)NC(=O)Nc4ccccn4)nn3)nc(-c3ccc(C(C)C)cc3)c2C#N)cc1 | 28.6 µM | 4.38 µM | 2.49 µM | 15.8 µM
CC(C)c1ccc(Nc2nc(SCc3cn(CC(=O)NC(=O)Nc4ccccn4)nn3)nc(-c3ccc(Cl)cc3)c2C#N)cc1 | 39.9 µM | 1.59 µM | > 64 µM | 16.9 µM
CC(C)c1ccc(-c2nc(SCc3cn(CC(=O)NC(=O)Nc4ccccn4)nn3)nc(Nc3cccc(C(F)(F)F)c3)c2C#N)cc1 | 8.62 µM | 1.7 µM | 24.2 µM | > 64 µM
